Tests used:
[1] = tested on: rats (food intake); conditions: ICV, depending on dose
[2] = tested on: hypothalamus (ATP content); test: ATP content in hypothalamic slice punches after ICV injection in rats; format: in vivo, rat; conditions: rats on normal (ad lib) diet, ICV 40 nmoles, punches 24 hours later, P<0.05
Description: In several experiments, to determine subsequent effects on food intake, hypothalamic Na/K ATPase activity or ATP content, the animals were administered the test compounds by ICV injection. Animals were anesthetized with sodium barbiturate (6 mg/100 g BW). Under stereotaxic fixation (David Kopf), with aseptic technique, a 25 ul Hamilton micro syringe (Reno, Nev.) needle tip was inserted according to the published references: 2 mm lateral to the middline at the bregma; −4.3 mm to the bregma; 5.5 mm deep to the dura; −1.3 mm with the shaft inclined medially at 13° […]. to the vertical. […] All injections were calculated and expressed in absolute amount, i.e. nmoles. […]
Following extraction, the content of ATP in these slice punches was measured by the Enliten™ ATP Assay system (see below). […]
As described above, hypothalamic tissues after removal or removal/incubation were transferred to 1.5 ml Eppendorf tubes with 50 μl TCA (5%) and immediately homogenated with a plastic homogenizer. […] ATP was measured according to the kit protocol. […] Light photons were measured by a luminometer and were compared with an ATP standard curve to calculate ATP concentration. […] ATP content is expressed as moles per mg protein for tissue samples, moles per 5 mg tissue for section punches, and as moles per neuron culture well; expressed in appropriate quantitative units for each experiment. […]

[3] = tested on: Na/K ATPase; test: 86-Rubidium uptake into incubated rat hypothalamic slice punches; format: cell-based; conditions: for effect of agent alone on 86Rb uptake: Compound (1) at up to 5000 nM
Description: The whole brain was removed from the skull and inserted into a Precision Brain Slicer (RMB 3000C, Braintree Scientific INC.). As scaled from the rear, a brain slice was removed between the 8 and 10 scale (about 2 mm). The medial-basal hypothalamus was punched using a round mouth #18 1 mm diameter needle with attached syringe. The tissue included most of arcuate nucleus of the hypothalamus and a small part of nucleus paremamillaris ventralis. The tissue was pushed into 0.5 ml DMEM medium in a 24 well cell culture plate. Following preincubation at 37° C., in air/5% CO2 for 30 min., concentrations of test Compound were added for an additional 30 min. Finally, 86-rubidium- (^86Rb) 1 μCi was added to each well for 20 minutes at room temperature. The tissue was then transferred to tubes with a protein dialysis solution to dissolve protein. Five (5) ml scintillation liquid was added to each tube and the photoemissions determined in a β-counter (Beckman).

[4] = tested on: Na/K ATPase; test: 86-Rubidium uptake in cultures of fetal rat hypothalamic neurons; format: cell-based; conditions: for effect on ouabain inhibition of 86-Rb uptake: preincubated 10 min, then ouabain 1000 nM
[5] = tested on: fetal rat hypothalamic neurons; test: ATP content in cultured fetal hypothalamic neurons (Enliten ATP Assay); format: cell-based; conditions: for increase of ATP content: 30 minute incubation in vitro
[6] = tested on: Na/K ATPase; test: Competitive binding / Na/K ATPase activity in membrane concentrates from brain, kidney and gut; format: biochemical
[7] = tested on: ATP-sensitive K+ channels; test: Electrophysiological recordings in hypothalamic slices (glucose sensitive neurons); format: cell-based; conditions: hypothalamic slice recordings
[8] = tested on: hypothalamus (ATP content); conditions: rats treated with supraphysiological doses of triiodothyronine (T3), ICV; cited from earlier work
[9] = tested on: rats (food intake); test: Effect of ICV or i.p. administration of test compounds on rat food intake
[10] = tested on: ouabain receptors; test: 3H-ouabain binding in cultured fetal rat hypothalamic neurons (whole cell); conditions: whole cell hypothalamic culture
Excerpt: This binding was unaffected and in some experiments appeared to actually increase during exposure to Compound (1). Compound (2) was not tested.

**Q.** Which results are given for `C/C=C(\C)C(=O)O[C@@H]1CC2C(CC=C3C[C@@H](OC4CC(OC)C(OC5CC(OC)C(OC6OC(C)C(O)C(OC)C6O)C(C)O5)C(C)O4)CC[C@@]32C)[C@@]2(O)CC[C@H](C(C)=O)[C@@]12C` (stereo partly drawn) [Compound (1), tri-rhabinoside, 14-0H, 12-tigloyl pregnane steroidal glycoside]?
**A.** duration of effect on food intake [1]: 24 to 48 h; effect on hypothalamic ATP content [2]: increased hypothalamic ATP content; effect of agent alone on 86Rb uptake [3]: had no effect; effect on the inhibitory effect of ouabain on 86Rb uptake ([3]; with ouabain): almost completely blocked; effect of agent alone on 86-Rb uptake ([4]; hypothalamic neuron culture): had no effect; concentrations at which reduction of ouabain inhibition of 86-Rb uptake was observed ([4]; hypothalamic neuron culture, ouabain 1000 nM): 5 to 500 nM; effect on ouabain inhibition of 86-Rb uptake ([4]; hypothalamic neuron culture): significantly reduced the inhibition; increase of ATP content ([5]; 500 nM alone): up to 2 fold; increase of ATP content ([5]; 500 nM in combination with ouabain): up to 2 fold; binding to / inhibition of activity of membrane extracts enriched with Na/K ATPase [6]: does not bind to or inhibit activity; effect on ATP-sensitive K+ channels [7]: activate (close); effect on apparent hypothalamic ATP deficit [8]: partially reversed; effect on food intake after i.p. injection ([9]; 20 nmoles administered once i.p. (data not shown)): did not significantly reduce food intake; effect on food intake at lowest dose ([9]; ICV, 0.04 nmoles): significant but relatively minor effect; effect on tritiated (3H) ouabain binding [10]: unaffected

**Q.** Which “effect on ouabain inhibition of 86-Rb uptake” value ([4]; hypothalamic neuron culture) does the source give for `C/C=C(\C)C(=O)O[C@@H]1CC2C(CC=C3C[C@@H](O)CC[C@@]32C)[C@@]2(O)CC[C@H](C(C)=O)[C@@]12C` (stereo partly drawn) [Compound (2)] here?
**A.** The value was “had no effect”.

**Q.** What about the “effect on subsequent 24 hour food intake” value ([9]; ICV, approximately 40 nmoles in DMSO) of the same molecule?
**A.** Its value is “altered subsequent 24 hour food intake”.

**Q.** With `C[C@@H]1O[C@@H](O[C@H]2C[C@@H](O)[C@]3(CO)[C@H]4[C@H](O)C[C@]5(C)[C@@H](C6=CC(=O)OC6)CC[C@]5(O)[C@@H]4CC[C@]3(O)C2)[C@H](O)[C@H](O)[C@H]1O` [Ouabain, ouabain, reference compound] as the molecule, how does the “effect of agent alone on 86Rb uptake” value [3] read?
**A.** Its value is “inhibited”.

**Q.** What about the “effect on ATP content” value ([5]; hypothalamic culture, ouabain alone) of the same molecule?
**A.** The value was “had no effect or slightly reduced ATP content”.

**Q.** What about the behavioural effect observed ([9]; ICV, approximately 8 nmoles in 4 μl DMSO) of the same molecule?
**A.** Its behavioural effect observed is “motor hyperactivity”.

**Q.** And the “effect on food intake” value ([9]; ICV, approximately 8 nmoles in 4 μl DMSO (results not shown))?
**A.** Its value is “no consistent effect on food intake”.

**Q.** What about the “effect on tritiated (3H) ouabain binding” value [10] of the same molecule?
**A.** The value was “specifically inhibited”.

Reference: patent US20060233861A1, “Modulation of atp production or content in the hypothalamus” (priority 2003, published 2006)
